# Test results taken from ChEMBL document CHEMBL3244216, “Chemical modification of 1,4-diamino-1,4-dideoxy-3-O-(4-deoxy-4-propionamido-alpha-D-glucopyranosyl)-D-glucitol” (1978).
# The source made the active and inactive calls. The calls are words filed in the database; no cut-off is given here.
# Columns and labels:
# Escherichia coli [1] = assay: Antibacterial activity against streptomycin, neomycin, kanamycin, gentamicin-resistant Escherichia coli 2964 assessed as growth inhibition by agar dilution method; format: functional
# Pseudomonas aeruginosa [2] = assay: Antibacterial activity against kanamycin and gentamicin-resistant Pseudomonas aeruginosa 3033 assessed as growth inhibition by agar dilution method; format: functional
# Staphylococcus aureus [3] = assay: Antibacterial activity against streptomycin, neomycin, kanamycin-resistant Staphylococcus aureus 2314 assessed as growth inhibition by agar dilution method; format: functional
# Staphylococcus aureus [4] = assay: Antibacterial activity against drug-sensitive Staphylococcus aureus 2985 assessed as growth inhibition by agar dilution method; format: functional; parameters: unit not given here
# Erwinia = assay: Antibacterial activity against drug-sensitive Erwinia 1159 assessed as growth inhibition by agar dilution method; format: functional; parameters: unit not given here
# Salmonella [5] = assay: Antibacterial activity against drug-sensitive Salmonella 1287 assessed as growth inhibition by agar dilution method; format: functional; parameters: unit not given here
# Brucella [6] = assay: Antibacterial activity against drug-sensitive Brucella 965 assessed as growth inhibition by agar dilution method; format: functional; parameters: unit not given here
# Brucella [7] = assay: Antibacterial activity against drug-sensitive Brucella 965 assessed as growth inhibition at => 200 ul/ml by agar dilution method; format: functional
# Enterococcus faecalis [8] = assay: Antibacterial activity against Streptococcus faecalis 755 assessed as growth inhibition by agar dilution method; format: functional; parameters: unit not given here
# Staphylococcus aureus [9] = assay: Antibacterial activity against Staphylococcus aureus 210 assessed as growth inhibition by agar dilution method; format: functional; parameters: unit not given here
# Serratia [10] = assay: Antibacterial activity against unpigmented Serratia 2840 assessed as growth inhibition by agar dilution method; format: functional; parameters: unit not given here
# Escherichia coli [11] = assay: Antibacterial activity against drug-sensitive Escherichia coli 2482 assessed as growth inhibition by agar dilution method; format: functional; parameters: unit not given here
# Escherichia coli [12] = assay: Antibacterial activity against drug-sensitive Escherichia coli 60 assessed as growth inhibition by agar dilution method; format: functional; parameters: unit not given here
# Bacillus subtilis = assay: Antibacterial activity against drug-sensitive Bacillus subtilis 964 assessed as growth inhibition by agar dilution method; format: functional; parameters: unit not given here
# Serratia [13] = assay: Antibacterial activity against pigmented Serratia 155 assessed as growth inhibition by agar dilution method; format: functional; parameters: unit not given here
# Proteus vulgaris [14] = assay: Antibacterial activity against drug-sensitive Proteus vulgaris 838 assessed as growth inhibition by agar dilution method; format: functional; parameters: unit not given here
# Enterococcus faecalis [15] = assay: Antibacterial activity against Streptococcus faecalis 755 assessed as growth inhibition at => 200 ul/ml by agar dilution method; format: functional, organism-based
# Klebsiella [16] = assay: Antibacterial activity against drug-sensitive Klebsiella 2921 assessed as growth inhibition by agar dilution method; format: functional
# Pseudomonas aeruginosa [17] = assay: Antibacterial activity against Pseudomonas aeruginosa 2956 assessed as growth inhibition at => 200 ul/ml by agar dilution method; format: functional, organism-based
# Pseudomonas aeruginosa [18] = assay: Antibacterial activity against Pseudomonas aeruginosa 2956 assessed as growth inhibition by agar dilution method; format: functional; parameters: unit not given here
# Proteus vulgaris [19] = assay: Antibacterial activity against drug-sensitive Proteus vulgaris 838 assessed as growth inhibition at => 100 ul/ml by agar dilution method; format: functional, organism-based
# Klebsiella [20] = assay: Antibacterial activity against drug-sensitive Klebsiella 2921 assessed as growth inhibition at => 200 ul/ml by agar dilution method; format: functional, organism-based
# Salmonella [21] = assay: Antibacterial activity against drug-sensitive Salmonella 1287 assessed as growth inhibition at => 200 ul/ml by agar dilution method; format: functional, organism-based
# Pseudomonas aeruginosa [22] = assay: Antibacterial activity against kanamycin and gentamicin-resistant Pseudomonas aeruginosa 3033 assessed as growth inhibition at => 200 ul/ml by agar dilution method; format: functional, organism-based
# Staphylococcus aureus [23] = assay: Antibacterial activity against streptomycin, neomycin, kanamycin-resistant Staphylococcus aureus 2314 assessed as growth inhibition at => 200 ul/ml by agar dilution method; format: functional, organism-based
# Proteus vulgaris [24] = assay: Antibacterial activity against drug-sensitive Proteus vulgaris 838 assessed as growth inhibition at => 200 ul/ml by agar dilution method; format: functional, organism-based
Structure (SMILES),MIC (Pseudomonas aeruginosa [2]) [µg/mL],MIC (Staphylococcus aureus [3]) [µg/mL],MIC (Staphylococcus aureus [4]),MIC (Erwinia),MIC (Salmonella [5]),MIC (Brucella [6]),MIC (Enterococcus faecalis [8]),MIC (Staphylococcus aureus [9]),MIC (Serratia [10]),MIC (Escherichia coli [11]),MIC (Escherichia coli [12]),MIC (Bacillus subtilis),MIC (Serratia [13]),MIC (Proteus vulgaris [14]),growth inhibition (GI) (Enterococcus faecalis [15]),MIC (Klebsiella [16]) [uL/ml],growth inhibition (GI) (Pseudomonas aeruginosa [17]),MIC (Pseudomonas aeruginosa [18]),also measured
NC[C@H]1O[C@H](O[C@H]2[C@H](O)[C@@H](O[C@H]3O[C@H](CO)[C@@H](O)[C@H](N)[C@H]3O)[C@H](N)C[C@@H]2N)[C@H](O)[C@@H](O)[C@@H]1O [KANAMYCIN],100,> 100,–,–,–,–,–,–,–,–,–,–,–,–,–,–,–,–,MIC (Escherichia coli [1]): 100 µg/mL
CC(=O)N[C@H]1[C@H](O)[C@@H](O)[C@@H](O[C@@H]([C@H](N)[C@H](O)CO)[C@@H](O)CN)O[C@@H]1CO,> 200,> 200,200,100,200,200,>200,200,>200,100,200,100,>200,200,–,–,–,–,growth inhibition (GI) (Brucella [7]): inactive
CCCN[C@H]1[C@H](O)[C@@H](O)[C@@H](O[C@@H]([C@H](N)[C@H](O)CO)[C@@H](O)CN)O[C@@H]1CO,> 200,100,50,–,100,200,200,50,200,200,200,50,–,200,inactive,200,inactive,200,growth inhibition (GI) (Proteus vulgaris [19]): inactive; growth inhibition (GI) (Klebsiella [20]): inactive
CCCC(=O)N[C@H]1[C@H](O)[C@@H](O)[C@@H](O[C@@H]([C@H](N)[C@H](O)CO)[C@@H](O)CN)O[C@@H]1CO,–,–,200,>200,200,–,200,200,200,200,200,100,>200,200,inactive,200,inactive,200,growth inhibition (GI) (Salmonella [21]): inactive; growth inhibition (GI) (Pseudomonas aeruginosa [22]): inactive; growth inhibition (GI) (Staphylococcus aureus [23]): inactive; growth inhibition (GI) (Proteus vulgaris [24]): inactive
CCC(=O)N[C@H]1[C@H](O)[C@@H](O)[C@@H](O[C@@H]([C@H](N)[C@H](O)CO)[C@@H](O)CN)O[C@@H]1CCl,–,200,50,>25,50,100,200,50,100,100,100,50,200,200,–,50,–,100,–
CCC(=O)N[C@H]1[C@H](O)[C@@H](O)[C@@H](O[C@@H]([C@H](N)[C@H](O)CO)[C@@H](O)CN)O[C@@H]1CO,100,200,100,<3.1,<3.1,100,200,50,200,50,50,50,>200,100,–,–,–,50,–
